From patent US20020110523A1, “Methods for screening or monitoring the risk of cardiovascular disease relating to sex steroid compound or composition intake and methods for screening sex steroid compound” (priority 1996, published 2002)
Marks after values point to notes of the source that are not given here.

How the values were obtained:
[1] = system: SHBG, cortisol binding protein (CBP), ceruloplasmin and HDL-cholesterol; settings: cited from earlier work; for estrogenic effect: in man; for androgenic activity: on the basis of a change in SHBG and HDL cholesterol levels
ceruloplasmin = settings: FIG. 1 of Ruokonen and Kaar; cited from earlier work
[2] = review of human studies; cited from earlier work
[3] = among third-generation OCs; cited from earlier work
C-reactive protein (CRP) = assay: CRP in postmenopausal women with type 2 diabetes on estrogen replacement therapy, randomized placebo-controlled trial (Example III); type: in vivo, human

Row | SMILES | estrogenic effect [1] | androgenic activity [1] | androgenicity and antiestrogenic potential [2] | also measured
1 | C#C[C@]1(O)CC[C@H]2[C@@H]3CCC4=CCCC[C@@H]4[C@H]3CC[C@@]21C [lynestrenol] | weakly estrogenic | androgenic activity |  | 
2 | C#C[C@]1(O)CC[C@H]2[C@@H]3CCC4=CCCC[C@@H]4[C@H]3C(=C)C[C@@]21CC [desogestrel] | no estrogenic effect | androgenic activity | minimal amounts of androgenicity and antiestrogenic potential | androgenicity compared among the three compounds ([1]; desogestrel, levonorgestrel and lynestrenol compared): least androgenic; effect on ceruloplasmin concentration (ceruloplasmin): does not induce this effect or does so to an insufficient degree
3 | C#C[C@]1(O)C=C[C@H]2[C@@H]3CCC4=CC(=O)CC[C@@H]4[C@H]3CC[C@@]21CC [gestodene] |  |  | minimal amounts of androgenicity and antiestrogenic potential | 
4 | C#C[C@]1(OC(C)=O)CC[C@H]2[C@@H]3CCC4=CC(=NO)CC[C@@H]4[C@H]3CC[C@@]21CC (mixture of isomers) [norgestimate] |  |  | minimal amounts of androgenicity and antiestrogenic potential | androgenic profile in vitro [3]: least androgenic profile
5 | C[C@]12CC[C@@H]3c4ccc(O)cc4CC[C@H]3[C@@H]1CC[C@@H]2O [17 beta estradiol] |  |  |  | effect on CRP (C-reactive protein (CRP); 2 mg/d orally for six weeks): induced an increase in CRP; CRP-values, Median (C-reactive protein (CRP); 6 weeks, 2 mg/d orally, p = 0.0027 compared to pretreatment): 6.70#; CRP-values, Median (C-reactive protein (CRP); Pretreatment (baseline of the treatment group), postmenopausal women with type 2 diabetes): 4.13
